The values below come from ChEMBL document CHEMBL1133193, “4-[3-(5,6,7,8-Tetrahydro-5,5,8,8-tetramethyl-2-naphthalenyl)phenyl]benzoic acid and heterocyclic-bridged analogues are novel retinoic acid receptor subtype and retinoid X receptor alpha agonists” (Bioorg Med Chem Lett, 2000).

SMILES strings stand for the structures.

Assay [1] addresses T1, Retinoic acid receptor RXR-alpha (Homo sapiens) (UniProt P19793).
T1 sequence (whole entry): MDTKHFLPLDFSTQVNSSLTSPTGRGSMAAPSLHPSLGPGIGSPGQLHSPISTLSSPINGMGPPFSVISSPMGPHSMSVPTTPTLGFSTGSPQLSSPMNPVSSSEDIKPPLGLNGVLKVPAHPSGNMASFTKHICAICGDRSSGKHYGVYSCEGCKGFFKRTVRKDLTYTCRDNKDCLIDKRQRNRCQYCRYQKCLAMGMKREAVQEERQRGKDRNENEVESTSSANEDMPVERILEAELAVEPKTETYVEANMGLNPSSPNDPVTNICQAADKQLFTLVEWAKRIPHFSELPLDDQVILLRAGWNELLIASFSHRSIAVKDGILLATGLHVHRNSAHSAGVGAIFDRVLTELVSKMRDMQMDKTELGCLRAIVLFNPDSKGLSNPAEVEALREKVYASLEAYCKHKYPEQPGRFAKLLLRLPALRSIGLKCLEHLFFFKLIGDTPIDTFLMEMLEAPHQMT
The assay is described as follows: Percent activation of Retinoic acid receptor RXR-alpha at 1 uM relative to 1 uM 9-cis-retinoic acid.

For assay [2], the target named is T2, Retinoic acid receptor RXR-alpha (Homo sapiens, UniProt P19793).
T2 sequence (P19793 whole entry): T1 sequence (whole entry)
The assay is described as follows: Transcriptional activation in CV-1 cells expressing Retinoic acid receptor RXR-alpha. It is filed as cell-based, Cercopithecidae.

The target in assay [3] is T3, Retinoic acid receptor alpha (Homo sapiens, UniProt P10276).
T3 sequence (P10276 whole entry): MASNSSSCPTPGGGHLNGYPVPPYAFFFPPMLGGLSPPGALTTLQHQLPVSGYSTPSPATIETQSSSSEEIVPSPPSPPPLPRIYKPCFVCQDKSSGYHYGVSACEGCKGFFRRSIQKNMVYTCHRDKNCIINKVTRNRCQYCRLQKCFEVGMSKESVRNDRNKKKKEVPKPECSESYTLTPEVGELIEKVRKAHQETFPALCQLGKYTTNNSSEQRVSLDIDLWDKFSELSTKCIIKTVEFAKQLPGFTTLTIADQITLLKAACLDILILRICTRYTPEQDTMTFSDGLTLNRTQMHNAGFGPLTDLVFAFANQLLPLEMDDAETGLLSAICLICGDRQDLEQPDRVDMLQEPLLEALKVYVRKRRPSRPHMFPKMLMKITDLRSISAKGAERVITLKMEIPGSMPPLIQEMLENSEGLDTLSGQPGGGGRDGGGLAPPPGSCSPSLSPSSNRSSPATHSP
As to the kind of experiment: Transcriptional activation in CV-1 cells expressing Retinoic acid receptor alpha. It is filed as cell-based, Cercopithecidae.

The target in assay [4] is T4, Retinoic acid receptor beta (Homo sapiens, UniProt P10826).
T4 sequence (P10826 whole entry): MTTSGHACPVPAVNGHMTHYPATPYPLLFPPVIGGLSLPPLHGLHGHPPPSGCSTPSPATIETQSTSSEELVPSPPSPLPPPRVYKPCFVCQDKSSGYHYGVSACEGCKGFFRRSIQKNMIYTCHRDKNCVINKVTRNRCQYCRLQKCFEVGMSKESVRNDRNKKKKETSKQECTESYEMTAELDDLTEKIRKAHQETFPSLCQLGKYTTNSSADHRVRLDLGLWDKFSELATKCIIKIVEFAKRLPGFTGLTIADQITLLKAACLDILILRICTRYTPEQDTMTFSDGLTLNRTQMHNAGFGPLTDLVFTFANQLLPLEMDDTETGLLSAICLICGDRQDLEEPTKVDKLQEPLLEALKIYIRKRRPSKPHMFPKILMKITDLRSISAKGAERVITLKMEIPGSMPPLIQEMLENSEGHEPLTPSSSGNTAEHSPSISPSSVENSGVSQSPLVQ
The assay is described as follows: Transcriptional activation in CV-1 cells expressing Retinoic acid receptor beta. It is filed as cell-based, Cercopithecidae.

The target of assay [5] is T5, Retinoic acid receptor gamma (Homo sapiens, UniProt P13631).
T5 sequence (P13631 whole entry): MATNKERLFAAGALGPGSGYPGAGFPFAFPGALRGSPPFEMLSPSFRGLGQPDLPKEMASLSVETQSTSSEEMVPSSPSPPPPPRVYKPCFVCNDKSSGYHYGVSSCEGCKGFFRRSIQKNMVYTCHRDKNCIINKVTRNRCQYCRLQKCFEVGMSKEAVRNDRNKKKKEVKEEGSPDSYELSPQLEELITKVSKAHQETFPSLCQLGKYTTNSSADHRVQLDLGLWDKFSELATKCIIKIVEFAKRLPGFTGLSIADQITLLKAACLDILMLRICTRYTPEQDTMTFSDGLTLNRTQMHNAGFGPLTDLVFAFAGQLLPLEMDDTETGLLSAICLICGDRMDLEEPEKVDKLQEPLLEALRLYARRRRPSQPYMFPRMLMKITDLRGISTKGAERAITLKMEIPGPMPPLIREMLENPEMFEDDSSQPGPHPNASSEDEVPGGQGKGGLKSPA
The assay is described as follows: Transcriptional activation in CV-1 cells expressing retinoic acid gamma receptor. It is filed as cell-based, Cercopithecidae.

The test system of a further assay is MDA-MB-231. As to the kind of experiment: Growth of MDA-MB-231 retinoid resistant breast carcinoma cells at 1 uM. Particulars: Homo sapiens.
The next assay relates to T47D. As to the kind of experiment: Inhibition of T47D retinoid sensitive breast carcinoma cell proliferation at 1 uM. The assay is classed as functional. The note with it: Homo sapiens.
Another assay concerns ZR-75-1. As to the kind of experiment: Inhibition of ZR-75-1 retinoid sensitive breast carcinoma cell proliferation at 1 uM. The note with it: Homo sapiens. The assay is classed as functional.

The AC50 is the concentration giving half of the maximal activity seen. `C/C(=C\c1ccc(C(=O)O)cc1)c1ccc2c(c1)C(C)(C)CCC2(C)C` showed an Activation in assay [1] of 0%. In addition, the AC50 in assay [2] is greater than 1000 nM.
As to `CC1(C)CCC(C)(C)c2cc(-c3ccc4cc(C(=O)O)ccc4c3)ccc21`, the AC50 was greater than 1000 nM in assay [3], 52 nM in assay [4], greater than 1000 nM in assay [2] and 68 nM in assay [5]. The same compound showed an Activation in assay [1] of 0%.
Consider `Cc1cc2c(cc1-c1ncc(-c3ccc(C(=O)O)cc3)s1)C(C)(C)CCC2(C)C`, for which the AC50 is greater than 1000 nM in assay [3], 740 nM in assay [4], greater than 1000 nM in assay [2] and 220 nM in assay [5]. Also, the Activation in assay [1] was 8%.
For orientation: inhibition means the relative decrease from the control value, in per cent. Lower therefore signals a weak effect. On to `CC1=C(/C=C/C(C)=C\C=C\C(C)=C\C(=O)O)C(C)(C)CCC1` [ALITRETINOIN], for which the growth relative to control at 1 µM with MDA-MB-231 is 69%. Besides, the inhibition at 1 µM with T47D came to 35%; in the assay with ZR-75-1, 59%.
Consider `Cc1ccc(-c2ccc(C(=O)O)cc2)cc1-c1ccc2c(c1)C(C)(C)CCC2(C)C`, for which the growth relative to control at 1 µM in the assay on MDA-MB-231 is 75%. The AC50 is 79 nM in assay [3], less than 1 nM in assay [4], 135 nM in assay [2] and less than 1 nM in assay [5]. In assay [1], this compound registered an Activation of 85%. The figures for the inhibition at 1 µM in the assay with T47D and in the assay on ZR-75-1 were 35% and 49%, respectively.
Consider `Cc1cc2c(cc1-c1cccc(-c3ccc(C(=O)O)cc3)n1)C(C)(C)CCC2(C)C`, for which the AC50 is greater than 1000 nM in assay [3], greater than 1000 nM in assay [4], greater than 1000 nM in assay [2] and 1000 nM in assay [5]. The same compound gave an Activation in assay [1] of 0%.
`CC1=C(/C=C/C(C)=C/C=C/C(C)=C/C(=O)O)C(C)(C)CCC1` [TRETINOIN] displayed a growth relative to control at 1 µM with MDA-MB-231 of 94%. In addition, the inhibition at 1 µM with T47D came to 39%; in the assay on ZR-75-1, 70%.
Regarding `CC1(C)CCC(C)(C)c2cc(-c3cccc(-c4ccc(C(=O)O)cc4)n3)ccc21`, the AC50 is 370 nM in assay [3], 140 nM in assay [4], greater than 1000 nM in assay [2] and greater than 1000 nM in assay [5]. Moreover, the Activation in assay [1] was determined as 17%.
With `CC1(C)CCC(C)(C)c2cc(-c3cccc(-c4ccc(C(=O)O)cc4)c3)ccc21`, the growth relative to control at 1 µM in the assay with MDA-MB-231 turned out to be 80%. The half-maximal activity concentration (AC50) in assay [3] is 1 nM; in assay [4], 4.3 nM; in assay [2] it was greater than 1000 nM; in assay [5], 2.3 nM. Further, the Activation in assay [1] came out at 27%. Also, the inhibition at 1 µM in the assay with T47D is 32%; in the assay with ZR-75-1, 47%.
On to `Cc1ccc(-c2ccc(C(=O)O)cc2)cc1-c1cc2c(cc1C)C(C)(C)CCC2(C)C`, for which the AC50 in assay [3] was greater than 1000 nM; in assay [4], 10 nM; in assay [2] it was 430 nM; in assay [5], 1 nM. Moreover, the Activation in assay [1] was found to be 70%.
